Our source for the Activity, IC50 and viability values is ChEMBL document CHEMBL5252609, “Design, synthesis, and antitumor evaluation of morpholine substituted bisnaphthalimides as DNA targeting agents” (Bioorg Med Chem Lett, 2023).

Structures are written as SMILES. pIC50: −log10 of the molar value. Activity calls are given as the source filed them. No cut-off for these calls is given here.

Data set [1] has as its system CNE-2. As to the kind of experiment: Induction of cell cycle arrest in human CNE-2 cells assessed as accumulation of cells at G1 phase at 0.5 uM measured after 48 hrs by flow cytometry analysis (Rvb= 73.18%). The class given is functional. (Flow cytometry measures light scatter and fluorescence of single cells or particles in a stream.)
In data set [2] the test system is MGC-803. The experiment in a line: Toxicity in nude mouse xenografted with human MGC-803 cells assessed as morphological changes in spleen at 8 mg/kg, ip administrated every other day for 21 days. The class given is functional, organism-based. Conditions: time 21.0 day.
For data set [3], the species on record is Homo sapiens. As to the kind of experiment: Binding affinity to pBR322 DNA (unknown origin) assessed as induced retardation of DNA migration at 20 to 100 uM by gel electrophoresis assay. Conditions: dose 20-100 µM.
Data set [4] deals with MGC-803. The experiment in a line: Toxicity in nude mouse xenografted with human MGC-803 cells assessed as morphological changes in liver at 8 mg/kg, ip administrated every other day for 21 days. Conditions: time 21.0 day. The class given is functional, organism-based.
Data set [5] concerns MGC-803. The experiment in a line: Toxicity in nude mouse xenografted with human MGC-803 cells assessed as morphological changes in lung at 8 mg/kg, ip administrated every other day for 21 days. The class given is functional, organism-based. Conditions: time 21.0 day. (In general: Xenograft models place foreign cells or tissue in a host animal.)
Data set [6] can be described thus: Toxicity in nude mouse xenografted with human MGC-803 cells assessed as effect on body weight at 4 mg/kg, ip administrated every other day measured at 9 to 14 days. The class given is organism-based. Conditions: in vivo, time 9-14 day.
Data set [7] has as its system MGC-803. As to the kind of experiment: Toxicity in nude mouse xenografted with human MGC-803 cells assessed as morphological changes in kidney at 8 mg/kg, ip administrated every other day for 21 days. The class given is functional, organism-based. Conditions: time 21.0 day.
Data set [8] relates to CNE-2. The experiment in a line: Induction of cell cycle arrest in human CNE-2 cells assessed as accumulation of cells at G2 phase at 2 uM measured after 48 hrs by flow cytometry analysis (Rvb= 6.99%). The class given is functional.
Data set [9] relates to MGC-803. As to the kind of experiment: Antiproliferative activity against human MGC-803 cells assessed as cell growth inhibition by MTT assay. The class given is functional, cell-based. (In general: Formazan colour is commonly taken as a measure of viable cells.)
Data set [10] relates to CNE-2. The experiment in a line: Induction of cell cycle arrest in human CNE-2 cells assessed as accumulation of cells at S phase measured after 48 hrs by flow cytometry analysis. The class given is functional, cell-based. Conditions: dose 0.5-2 µM.
Data set [11] has as its system CNE-2. The experiment in a line: Induction of cell cycle arrest in human CNE-2 cells assessed as accumulation of cells at S phase at 1 uM measured after 48 hrs by flow cytometry analysis (Rvb= 19.83%). The class given is functional.
For data set [12], the system named is CNE-2. The experiment in a line: Induction of apoptosis in human CNE-2 cells assessed as necrotic cells at 2 uM measured after 24 hrs by annexin-V-FITC and PI staining based flow cytometry analysis (reference value: 0.959%). The class given is functional.
Data set [13] concerns CNE-2. The experiment in a line: Induction of apoptosis in human CNE-2 cells assessed as viable cells at 2 uM measured after 24 hrs by annexin-V-FITC and PI staining based flow cytometry analysis (reference value: 94.8%). Conditions: read-out: Activity. The class given is functional.
The test system of data set [14] is CNE-2. The experiment in a line: Induction of apoptosis in human CNE-2 cells assessed as late apoptotic cells at 0.5 uM measured after 24 hrs by annexin-V-FITC and PI staining based flow cytometry analysis (reference value: 3.79%). The class given is functional.
Data set [15] deals with MGC-803. As to the kind of experiment: Antitumor activity against human MGC-803 cells xenografted in nude mouse assessed as reduction in tumor weight at 8 mg/kg, ip administrated every other day for 21 days relative to control. The class given is functional. On the set-up: scale not given: the % may be the effect or the level left. Conditions: time 21 day.
Data set [16] relates to MGC-803. The experiment in a line: Toxicity in nude mouse xenografted with human MGC-803 cells assessed as morphological changes in heart at 8 mg/kg, ip administrated every other day for 21 days. The class given is functional, organism-based. Conditions: time 21.0 day.
Data set [17] can be described thus: Toxicity in nude mouse xenografted with human MGC-803 cells assessed as effect on body weight at 4 mg/kg, ip administrated every other day for 21 days. The class given is organism-based. Conditions: in vivo, 504 h, time 21 day.

Consider `O=C1c2cccc3c(N4CCOCC4)c([N+](=O)[O-])cc(c23)C(=O)N1CCNCCN1C(=O)c2cccc3c(N4CCOCC4)c([N+](=O)[O-])cc(c23)C1=O`, for which the Activity in [1] was 66.68%; in data set [2], “Not toxic”; in [4] it was “Toxic”; in data set [5], “Not toxic”; in data set [6] it was “Non-Toxic”; in [7], “Not toxic”. The Activity in [8] was 11.96%; in data set [10] it was “Dose-Dependent Effect”; in data set [11], 31.13%; in [12], 13.9%; in data set [14], 6.61%; in [15], 46%. The Activity entry in [16] was “Not toxic”. Also, the outcome in data set [3] was Active. Further, the negative logarithm of the IC50 (pIC50) in data set [9] is 7.05. Besides, in data set [13], the viability at 2 µM worked out at 70.1%.

On to `CN(C)CCN1C(=O)c2cccc3c(N4CCOCC4)c([N+](=O)[O-])cc(c23)C1=O`, for which the Activity in data set [1] was 72.47%; in [4], “Toxic”; in data set [8], 25.48%; in data set [11], 18.12%; in [17], “Toxic”; in data set [12] it was 1.91%. In addition, the Activity was 8.17% in data set [14] and 46.9% in data set [15]. In [3], the outcome was Active. For the same molecule, in [9], the pIC50 was 5.81. Also, the viability at 2 µM in [13] came to 71.9%.

In general, pIC50 refers to −log10 of the IC50, conventionally taken in molar units.
